Laboratory results published in US12377103B2, “Use of bromodomain-containing protein 9 inhibitors to treat and/or prevent uterine leiomyosarcoma” (The University of Chicago, priority 2022, dated 2025).

Experiments:
macrophages = details: cited from earlier work
ovarian cancer = details: associated with cell cycle arrest, apoptosis induction, metabolic alterations; cited from earlier work
SK-UT-1 cells [1] = assay: Proliferation assay (trypan blue exclusion), SK-UT-1; assay type: cell-based, human; details: 1-25 μM, 48 h, FIG. 4C
Description: (§1) The leiomyosarcoma (uLMS) cell line (SK-UT1, ATCC® HTB-114TM) (ATCC, Manassas, VA, USA) was cultured and maintained in ATCC-formulated Eagle's Minimum Essential Medium with 10% of fetal bovine serum. In addition, the uterine sarcoma cell line (MES-SA) (ATCC, Manassas, VA, USA) was cultured and maintained in McCoy's 5A medium. The immortalized human leiomyoma cell line (HuLM) and immortalized human uterine smooth muscle (UTSM) cells were a generous gift from Professor Darlene Dixon. The HuLM and UTSM cell lines were cultured and maintained in phenol red-free, Dulbecco's Modified Eagle Medium: Nutrient Mixture F-12. These cell lines, covering the spectrum from normal cell line (UTSM), benign uterine tumor cell line (HuLM), and uterine malignant cell lines (uLMS), were used to better understand the tumor progression linking to the BRD9 dysregulation in uLMS. BRD9 inhibitor (iBRD9) TP-472 was purchased from Tocris (Cat #6000, Minneapolis, MN, USA).
(§2) Cell proliferation was measured using trypan blue exclusion assay; 4 104 cells per well were seeded into 12-well tissue culture plates, treated with the iBRD9 (TP-472) at a dose range from 1-25 μM for 48 h. This assay was performed three times in triplicate.
(§3) Trypan blue exclusion assay was performed in SK-UT-1 and MES-SA cell lines treated for 48 h with TP-472 at dose ranges from 1-25 μM.

MES-SA cells = assay: Proliferation assay (trypan blue exclusion), MES-SA; assay type: cell-based, human; details: 1-25 μM, 48 h, FIG. 4D
Description: as §1, §2, §3

BCL-2 = assay: Western blot of BCL-2 protein levels in SK-UT-1 cells; assay type: cell-based, human; details: dose-dependent manner, FIG. 4E-4F
Description: Cells were collected and lysed in RIPA lysis buffer with protease and phosphatase inhibitor cocktail (Thermo Scientific, Waltham, MA, USA), the protein was quantified using the Bradford method (Bio-Rad Protein Assay kit). The antigen—antibody complex was detected with Trident Femto Western HRP substrate (Gene-Tex, Irvine, CA, USA). Specific protein bands were visualized using ChemiDoc XRS ♭ molecular imager (Bio-Rad, Hercules, CA, USA).
as §3

SK-UT-1 cells [2] = assay: RNA-sequencing of TP-472 vs control treated SK-UT-1 cells; assay type: cell-based, human
Description: To determine the mechanism underlying the inhibitory effect of BRD9 inhibition on the uLMS, the SK-UT-1 cells were treated with iBRD9 TP-472 (5 μM) for 48 h. RNA was isolated using Trizol. RNA quality and quantity were assessed using the Agilent bio-analyzer. Strand-specific RNA-SEQ libraries were prepared using a TruSEQ total RNA-SEQ library protocol (Illumina provided). Library quality and quantity were assessed using the Agilent bio-analyzer and libraries were sequenced using an Illumina NovaSEQ6000 (illumine provided reagents and protocols).
A variety of R packages was used for this analysis. All graphics and data wrangling were handled using the tidyverse suite of packages. All packages used are available from the Comprehensive R Archive Network (CRAN), the Bioconductor project, or Github. The reads were mapped to the human reference transcriptome using STAR, version 2.6.1d (GitHub, Inc., San Francisco, CA, USA). The quality of raw reads, as well as the results of STAR mapping, are generated using fastqc and multiqc. Raw reads were mapped to the human reference transcriptome using Salmon, version 1.4.0. After reading mapping with Salmon, the tximport software package (Bioconductor project, accessed on 27 Oct. 2021) was used to read Salmon outputs into the R environment. Annotation data from Gencode V34 was used to summarize data from transcript-level to gene-level.
For Parsimonious gene correlation network analysis (PGCNA), normalized matrix of DEGs (Adjusted p-Values<0.05 and […]; n=3583) and the top 80% of the most variance genes across samples (n=10,848) were used to network construction. The matrix was used to calculate Spearman rank correlations for all gene pairs using the Python PGCNA2 package. For each gene (row) in a correlation matrix, only the three most correlated edges per gene were retained. The correlation matrices were clustered 100 times using the fast unfolding of communities in a large network's algorithm and the best (judged by modularity score) were used for downstream analysis. Gephi package with the ForceAt-1as2 layout method was used to visualize the network. Enrichment analyses were performed using the Enrichr web server (Ma′ayan lab at Icahn School of Medicine at Mount Sinai, accessed on 10 Jan. 2022) through EnrichR package in R software. Top biological process GO terms with the false discovery rate (FDR)[…] were analyzed using REVIGO to summarize and find a representative subset of the terms. STRING database (accessed on 27 Apr. 2022), which is the online search tool to protein-protein network (PPI) construction, was used to reconstruct each modules network (A combined score≥0.4 of PPI pairs was considered significant), then the Cytoscape software was employed to analyze the obtained networks. In addition, the Venn diagram online tool provided by VIB and Ghent University (accessed on 27 Apr. 2022) was used to investigate the intersection of DEGs and selected modules.
To determine the mechanistic action of TP-472 inhibition on uLMS cells, RNA-sequencing analysis was performed in control and TP-472 treated cells (n=4 each).

SK-UT-1 cells [3] = assay: qRT-PCR validation of cell cycle and apoptosis genes; assay type: cell-based, human; details: iBRD9 treatment
Description: Total RNA was isolated using Trizol reagent (Invitrogen, Carlsbad, CA, USA). The concentration of total RNA was determined using NanoDrop (Thermo Scientific, Waltham, MA, USA). One microgram of total RNA from each sample was reverse transcribed to complementary DNA (cDNA) using the High-Capacity cDNA Transcription Kit (Thermo Scientific, Waltham, MA, USA). Quantitative real-time polymerase chain reaction (qRT-PCR) was performed to determine the messenger RNA (mRNA) expression of several genes listed with their primer sequences in Table 2. The real-time PCR reactions were performed using CFX96 PCR instrument using SYBR Green Supermix (Bio-Rad, Hercules, CA, USA). 18S was used as an internal control. The results are presented as relative gene expression using CFX Maestro™. The assay was performed three times in triplicate.
Quantitative real-time PCR was performed to determine the mRNA expression of genes as described previously. An equal amount of cDNA from each sample was added to the Master mix containing appropriate primer sets and SYBR green supermix (Bio-Rad) in a 20 μL reaction volume. All samples were analyzed in triplicates. Real-time PCR analyses were performed using a Bio-Rad CFX96. Cycling conditions included denaturation at 95° C. for 2 min followed by 40 cycles of 95° C. for 5 s and 60° C. for 30 seconds then 65° C. for 5 seconds. […]

melanoma = details: by suppressing ECM-mediated oncogenic signaling and inducing apoptosis; cited from earlier work
BRD9 = BRD9 (Homo sapiens, UniProt Q9H8M2); details: cited from earlier work
endometrial cancer cells = details: cited from earlier work
CECR2 BRD = CECR2 BRD (Homo sapiens, UniProt Q9BXF3); details: within cells; cited from earlier work
SW48 colon cancer cells = details: cited from earlier work
[4] = SK-UT-1 cells, 5 μM, 48 h, n=4 each
[5] = module I, SK-UT-1, TP-472 5 μM 48 h vs control
[6] = module III, SK-UT-1, TP-472 5 μM 48 h vs control
[7] = module VI, SK-UT-1, TP-472 5 μM 48 h vs control
[8] = module VII, SK-UT-1, TP-472 5 μM 48 h vs control

Sequence of CECR2 BRD (Q9BXF3 434-538 limits assumed): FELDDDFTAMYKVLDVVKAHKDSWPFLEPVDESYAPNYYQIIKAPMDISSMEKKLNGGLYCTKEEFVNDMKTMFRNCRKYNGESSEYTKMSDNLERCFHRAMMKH
Sequence of BRD9 (Q9H8M2 whole entry): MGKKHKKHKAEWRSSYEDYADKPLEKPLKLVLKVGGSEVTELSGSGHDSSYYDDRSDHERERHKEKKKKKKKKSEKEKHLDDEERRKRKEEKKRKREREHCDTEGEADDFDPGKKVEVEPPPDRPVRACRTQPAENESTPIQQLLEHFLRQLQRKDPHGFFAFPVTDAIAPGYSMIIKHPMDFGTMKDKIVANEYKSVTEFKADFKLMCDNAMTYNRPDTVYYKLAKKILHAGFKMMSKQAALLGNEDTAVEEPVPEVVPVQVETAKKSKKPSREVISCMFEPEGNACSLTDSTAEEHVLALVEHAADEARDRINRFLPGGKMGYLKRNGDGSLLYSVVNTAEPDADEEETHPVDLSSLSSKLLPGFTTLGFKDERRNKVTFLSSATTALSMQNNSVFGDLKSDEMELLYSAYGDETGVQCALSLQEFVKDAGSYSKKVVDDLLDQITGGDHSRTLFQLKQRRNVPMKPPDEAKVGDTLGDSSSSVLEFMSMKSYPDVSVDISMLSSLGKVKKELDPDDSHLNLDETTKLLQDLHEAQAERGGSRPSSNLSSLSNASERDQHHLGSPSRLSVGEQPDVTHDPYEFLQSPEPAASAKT

## Cc1sc2c(c1C)C(c1ccc(Cl)cc1)=N[C@@H](CC(=O)OC(C)(C)C)c1nnc(C)n1-2 [JQ1]
macrophages
  IL-6 and TNF levels: reduce
Ovarian cancer
  tumor growth in ovarian cancer: suppresses tumor growth

## CC(=O)c1cc(-c2cc(C(=O)NC3CC3)ccc2C)c2ncccn12 [TP-472]
SK-UT-1 cells [1]
  effect on proliferation of SK-UT-1 cells: dose-dependent inhibitory effect
MES-SA cells
  effect on proliferation of MES-SA cells: dose-dependent inhibitory effect
BCL-2
  protein levels of BCL-2: significantly decreased
SK-UT-1 cells [2]; RNA-seq, treated SK-UT-1 cells vs control, FIG. 7B
  mRNA levels of BAK: significantly increased
SK-UT-1 cells [2]; RNA-seq, treated uLMS cells vs control, FIG. 7A
  CDKN1A expression: significantly higher
SK-UT-1 cells [2]; RNA-seq, treated uLMS cells, FIG. 7C
  expression of AKT1: markedly decreased
SK-UT-1 cells [2]; RNA-seq, treated uLMS cells, FIG. 7D
  expression of AKT2: significantly decreased
SK-UT-1 cells [2]; RNA-seq, uLMS cells, FIG. 7E
  expression of Gill: significantly decreased
SK-UT-1 cells [2]; RNA-seq, uLMS cells, FIG. 7F
  GLI2 expression: markedly reduced
SK-UT-1 cells [2]; [4]
  differentially expressed genes (DEGs), down: 1741
  differentially expressed genes (DEGs), total: 3583
  differentially expressed genes (DEGs), up: 1842
SK-UT-1 cells [2]; [5]
  FC of hub gene CEBPB: 1.75
  FC of hub gene EGR1: 1.63
  FC of hub gene FOS: 1.50
  FC of hub gene GATA2: 2.26
  FC of hub gene GRIN1: 2.54
  FC of hub gene MYC: 1.56
  FC of hub gene SHH: 4.66
  FC of hub gene SOX9: 2.02
  FC of hub gene STX1A: 1.78
  FC of hub gene TERT: 1.68
SK-UT-1 cells [2]; [6]
  FC of hub gene CCT2: 1.61
  FC of hub gene CYCS: 1.86
  FC of hub gene EIF2S1: 1.52
  FC of hub gene HSPA8: 1.75
  FC of hub gene IMP3: 1.62
  FC of hub gene NIP7: 1.92
  FC of hub gene NOP56: 1.64
  FC of hub gene NOP58: 1.74
  FC of hub gene PA2G4: 1.55
  FC of hub gene RPL26L1: 1.58
SK-UT-1 cells [2]; [7]
  FC of hub gene BYSL: 1.75
  FC of hub gene CCND1: 2.21
  FC of hub gene FN1: 2.40
  FC of hub gene HRAS: 1.60
  FC of hub gene JUN: 3.13
  FC of hub gene KIT: 20.37
  FC of hub gene LEF1: 6.22
  FC of hub gene MRTO4: 2.16
  FC of hub gene PDCD11: 1.69
  FC of hub gene RRP9: 2.71
SK-UT-1 cells [2]; [8]
  FC of hub gene CDK1: −1.56
  FC of hub gene CHEK2: −1.69
  FC of hub gene FGF2: −1.56
  FC of hub gene HLTF: −1.78
  FC of hub gene MIS18BP1: −1.53
  FC of hub gene STAG2: −1.51
  FC of hub gene TIA1: −1.60
  FC of hub gene TOP2A: −1.52
  FC of hub gene TOP2B: −1.52
  FC of hub gene WDHD1: −1.52
SK-UT-1 cells [3]; FIG. 7G
  expression of CDKN1A by q-PCR: significant increase
SK-UT-1 cells [3]; FIG. 7H
  expression of BAK1 by q-PCR: significant increase
melanoma
  tumor growth in melanoma: blocked tumor growth
BRD9
  potency for BRD9: high potency

## O=C1NC(=NCc2cccs2)S/C1=C\c1ccc2ncccc2c1 [RO3306]
Endometrial cancer cells
  cell apoptosis and cell cycle in endometrial cancer cells: induced cell apoptosis and caused G2/M phase arrest

## CCCS(=O)(=O)c1nc(NC2CC2)cc(-c2ccc3c(ccn3C3CC(C)(C)NC(C)(C)C3)c2)n1 [NVS-CECR2-1]
CECR2 BRD
  chromatin binding of CECR2 BRD: inhibits
SW48 colon cancer cells
  cytotoxic activity against human cancer cells: killing SW48 colon cancer cells by inducing apoptosis
